Literature values, collected in patent US9549925B2, “Lipid-based compositions of antiinfectives for treating pulmonary infections and methods of use thereof” (Insmed Incorporated, priority 2005, dated 2017).

Conditions: free tobramycin, nebulized, nominal dose 300 mg; absorption into the systemic circulation

absorption half-life from the lung: about 1.5 hr
Structure (SMILES): NC[C@H]1O[C@H](O[C@H]2[C@H](O)[C@@H](O[C@H]3O[C@H](CO)[C@@H](O)[C@H](N)[C@H]3O)[C@H](N)C[C@@H]2N)[C@H](N)C[C@@H]1O [tobramycin, Tobramycin]
